Laboratory results taken from patent publication US10695387B2, “Extracts of microalgae and plants for regulating sebum production” (Cutech SRL, priority 2014, dated 2020).

Test system: human sebaceous glands (hSGs)
Assay: Ex-vivo culture of human sebaceous glands (hSGs), quantification of sebum content (lipids/proteins) vs control
Assay type: cell-based
Conditions: positive control
Description: All the reported examples are intended to show the modulation of sebum production exerted by the experimental preparations on human hSGs microdissected and cultivated up to day 6. At the end of the culture time, the sebum is extracted and quantified from each experimental group of hSGs and then normalized by the proteins extracted from the residual hSG material (mg lipids/mg proteins). As a result, the biological activity of the tested compounds is inferred by comparing the ratio lipids/proteins of the treated glands with that of the control group.
Using micro-scissors and tweezers, hSGs were isolated from the pilosebaceous units of a scalp skin sample. They were seeded in 24-well plates at the density of 8 hSGs/well and then cultivated in 500 μl of modified William E medium. After 24 hours of culture the viability of the hSGs was assessed by means of resazurine assay. Briefly, each hSGs group was transferred onto a microplate well with 200 μl of 10% resazurin culture medium for 2 hours. During this period the resazurin, a non-fluorescent blue dye, is reduced by living cells to the pink coloured and highly red fluorescent resorufin. At the end of the incubation, the medium was withdrawn and analyzed for the resazurin fluorescence in a plate reader ([…]). The fluorescence signal positively correlates with the hSGs viability. Since the resazurin test is not toxic, the hSGs were then seeded in a 24-well plate and cultivated with the experimental culture media in order to start the treatments. The control received William E medium appropriately modified, while the samples submitted to experimental treatments received the same medium supplemented with experimental extracts. The culture medium was renewed every other day. After six days of organ culture, the viability of the hSGs was again assessed via resazurine assay and then, having attested their good viability, each group of hGSs was collected and analyzed for quantifying the sebum content.
Each hSG group was homogenized in 100 μl of isopropyl alcohol;
the sample was centrifuged at 14,000 G for 5 minutes and then the supernatant (containing the extracted sebum) was collected;
the sebum extract was analyzed in triplicate with a Direct Detect IR Spectrometer (Millipore), which provided the total lipid concentration of the supernatant (mg/ml);
the total lipids of the hSGs was quantified multiplying the supernatant lipid concentration (indention 3) by the volume of isopropyl alcohol adopted for the lipid extraction (indention 1);
the pellet remaining from indention 2 was dried by means of a vacuum dry evaporator and then again homogenized in 50 μl of proteolytic buffer (20 mM Tris/HCl pH 7.5, 150 mM NaCl, 2 mM EDTA, 0.5% Triton X-100, 2 mM DTT, 1% protease inhibitor cocktail);
after an appropriate incubation time, this extractive mixture was centrifuged at 14,000 G for 10 minutes and the supernatant was collected and analyzed in triplicate with a Direct Detect IR Spectrometer (Millipore);
the obtained total protein concentration was multiplied by the extractive volume (indention 5) in order to quantify the total proteins of the hSGs;
the total lipid amount (indention 4), i.e. the amount of sebum, was divided by the total proteins (indention 7) in order to obtain the normalized amount of lipids per mg of proteins (mg of lipids/mg of proteins).
The amounts of normalized lipids obtained from the treated groups, i.e. the sebum produced by each group of hSGs, were expressed in percentages with respect to the value obtained in the control group, in order to point out the regulatory effect performed by the experimental treatment.

SMILES: COc1cc(CNC(=O)CCCC/C=C/C(C)C)ccc1O [Capsaicin]
- Sebum content in hSGs, Average, % ratio of the control group performance (Table 2 experiment, 5 μM): 90.3%
- Sebum content in hSGs, Average, % ratio of the control group performance (Table 5 experiment, Amount 0): 68.5%
- Sebum content in hSGs, Average, % ratio of the control group performance (Table 6 experiment (different donor), Amount 0): 59.2%
- Sebum content in hSGs, Average, % ratio of the control group performance (Table 7 experiment, Amount 0): 97.4%
- Sebum content in hSGs, Average, % ratio of the control group performance (Table 8 experiment, Amount 0): 91.9%
- Sebum content in hSGs, Average, % ratio of the control group performance (Table 10 experiment, 5 μg/ml): 62.9%
